Columns and labels:
Botrytis cinerea [1] = experiment: Botrytis cinerea test on tomato, preventive, greenhouse; format: in vivo; details: preventive spray on bean/chili plants (heading: tomato), inoculated one day after treatment, read-out: control (efficacy, disease severity) compared to the untreated check
Colletotrichum capsici = Colletotrichum capsici (anthracnose) mycelial radial growth on potato dextrose agar; format: cell-based; details: Colletotrichum truncatum, 168 h, 25° C., seven days, read-out: control compared to the untreated check
Method in brief: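 Compounds in 0.3% DMSO were mixed into potato dextrose agar, and each plate was seeded with a 5 mm mycelial disc from an actively growing culture. Plates were incubated at 25° C and 60% relative humidity for seven days. Radial growth was compared with untreated control.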

Phytophthora infestans [2] = experiment: whole plant or invertebrate; format: in vivo, Phytophthora infestans on tomato; details: in Solanum lycopersicum, read-out: control (efficacy, disease severity) compared to the untreated check
Venturia Inequalis = experiment: Venturia inequalis (VENTIN) spore growth inhibition in liquid medium, 96-well microtiter plate, OD 600; format: cell-based; details: spore suspension in PDB liquid medium, 18° C., 15-18 days, OD at 600, read-out: control compared to the untreated check
Description: Potato dextrose (PDB) liquid medium containing a VENTIN (10^5 spores/ml) spore suspension was prepared. For the inhibition assay, each test compound was solved in dimethyl sulfoxide. 100 μl of the test compound in media-solution was added to a 96-well microtiter plate, consequently, the same volume (100 μl) of spore suspension was added to the well making the final test concentrations and the treated plate was incubated at 18° C. for 15-18 days. The growth inhibition was evaluated by measuring the OD at 600. Percent inhibition was calculated with the below formula: […]

Botrytis cinerea [3] = experiment: Botrytis cinerea liq. (BOTRCI) spore growth inhibition in liquid medium, 96-well microtiter plate, OD 405 nm; format: cell-based; details: spore suspension in YBA liquid medium, 22° C., 5-6 days, OD at 405 nm, read-out: control compared to the untreated check
Method in brief: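 Spore suspension of B. cinerea (10^4 spores/ml) in YBA liquid medium mixed 1:1 with compound diluted from DMSO. Incubated at 22° C. for 5-6 days. Growth read as OD 405 nm; percent inhibition derived from treatment, untreated-control and blank readings.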

Botrytis cinerea [4] = experiment: Botrytis cinerea (gray mold) mycelial radial growth on potato dextrose agar; format: cell-based; details: 168 h, 22° C., seven days, read-out: control compared to the untreated check
Method in brief: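 Compounds in 0.3% DMSO were mixed into potato dextrose agar, and plates were seeded with 5 mm mycelial discs from actively growing virulent culture. After seven days at 22 °C and 90% relative humidity, radial growth was measured relative to untreated control.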

Parastagonospora nodorum = Parastagonospora nodorum (PARANO) spore growth inhibition in liquid medium, 96-well microtiter plate, OD 600; format: cell-based; details: spore suspension in PDB liquid medium, 18° C., 5-6 days, OD at 600, read-out: control compared to the untreated check
Method in brief: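 Read-out is percent growth inhibition from OD at 600 after 5-6 days at 18° C. Compounds, dissolved in DMSO, were diluted in potato dextrose broth and combined in equal volume with a 10^5 spores/ml suspension of PARANO.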

Phytophthora infestans [5] = experiment: microbe, parasite or virus in culture; format: cell-based; details: 168 h, read-out: control compared to the untreated check
Alternaria solani [6] = experiment: Alternaria solani (early blight of tomato/potato) mycelial radial growth on potato dextrose agar; format: cell-based; details: 168 h, 25° C., seven days, read-out: control compared to the untreated check
Description: The compounds were dissolved in 0.3% dimethyl sulfoxide and then added to potato dextrose agar medium just prior to dispensing it into petri dishes. 5 mL medium, with the compound in the desired concentration, was dispensed into 60 mm sterile petri-plates. After solidification, each plate was seeded with a 5 mm size mycelial disc taken from the periphery of an actively growing virulent culture plate. The plates were incubated in growth chambers at 25° C. temperature and 60% relative humidity for seven days and the radial growth was measured and compared to the one of the untreated control.

Phakopsora pachyrhizi = Phakopsora pachyrhizi test on soybean, preventive, greenhouse; format: in vivo; details: preventive spray on soybean, inoculated one day after treatment, read-out: control (efficacy, disease severity) compared to the untreated check
Method in brief: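 Greenhouse-grown young soybean plants were sprayed with compound (2% DMSO/acetone, emulsifier in water) at the stated rate. One day later they were inoculated with 2×10^5 P. pachyrhizi inoculum and held at 22-24 °C, 80-90% relative humidity for disease development.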

Pyricularia oryzae = experiment: microbe, parasite or virus in culture; format: cell-based; details: 168 h, read-out: control compared to the untreated check
Alternaria solani [7] = experiment: Alternaria solani test in tomato, preventive, greenhouse; format: in vivo; details: preventive spray on tomato, inoculated one day after treatment, read-out: control (efficacy, disease severity) compared to the untreated check
Description: The respective compound was dissolved in 2% dimethyl sulfoxide/acetone and then mixed with water containing an emulsifier to the calibrated spray volume of 30 mL. Each spray solution was poured into a spray bottle for further application.
To test the preventive activity of a compound, healthy young tomato plants, raised in the greenhouse, were sprayed with the active compound preparation at the stated application rate inside the spray cabinets using hollow cone nozzles. One day after treatment, the plants were inoculated with a spore suspension containing 0.24×10^6 Alternaria solani inoculum. The inoculated plants were then kept in a greenhouse chamber at 22-24° C. temperature and 90-95% relative humidity for disease expression.
A visual assessment of the compound's performance was carried out by rating the disease severity (0 100% scale) on treated plants 3, 7, 10 and 15 days after application. Efficacy (% control) of the compound was calculated by comparing the disease rating in the treatment with the one of the untreated control. The treated plants were also assessed for plant damage by recording symptoms like necrosis, chlorosis and stunting.

C=C(C)CC(C)(Cc1ccccc1F)NC(=O)c1cnc2cc[nH]c2c1 (centres unmarked) [Compound 144, N-(1-(2-fluorophenyl)-2,4-dimethylpent-4-en-2-yl)-1H-pyrrolo[3,2-b] pyridine-6-carboxamide]
≥ 70%: pest or weed control at 500 ppm (Botrytis cinerea [1]) | inhibition of growth at 300 ppm (Colletotrichum capsici) | pest or weed control at 500 ppm (Phytophthora infestans [2]) | inhibition of growth at 300 ppm (Venturia Inequalis) | inhibition of growth at 300 ppm (Botrytis cinerea [3]) | inhibition of growth at 300 ppm (Botrytis cinerea [4]) | inhibition of growth at 300 ppm (Parastagonospora nodorum) | inhibition of growth at 300 ppm (Phytophthora infestans [5]) | inhibition of growth at 300 ppm (Alternaria solani [6]) | pest or weed control at 500 ppm (Phakopsora pachyrhizi)

CC(C)CC(C)(Cc1ccccc1)NC(=O)c1cnc2[nH]ccc2c1 (centres unmarked) [Compound 28, N-(2,4-dimethyl-1-phenylpentan-2-yl)-1H-pyrrolo[2,3-b] pyridine-5-carboxamide]
≥ 70%: inhibition of growth at 300 ppm (Colletotrichum capsici) | inhibition of growth at 300 ppm (Parastagonospora nodorum) | inhibition of growth at 300 ppm (Phytophthora infestans [5]) | inhibition of growth at 300 ppm (Alternaria solani [6]) | pest or weed control at 500 ppm (Phakopsora pachyrhizi)

Cn1ccc2cc(C(=O)NC(C)(C)Cc3cccc(C(F)(F)F)c3)cnc21 [Compound 14, 1-methyl-N-(2-methyl-1-(3-(trifluoromethyl)phenyl)propan-2-yl)-1H-pyrrolo[2,3-b]pyridine-5-carboxamide]
≥ 70%: inhibition of growth at 300 ppm (Botrytis cinerea [3]) | inhibition of growth at 300 ppm (Alternaria solani [6])

Cn1ccc2cc(C(=O)NC3(Cc4ccccc4)CCCCC3)cnc21 [Compound 11, N-(1-benzylcyclohexyl)-1-methyl-1H-pyrrolo[2,3-b]pyridine-5-carboxamide]
≥ 70%: inhibition of growth at 300 ppm (Colletotrichum capsici) | inhibition of growth at 300 ppm (Parastagonospora nodorum) | inhibition of growth at 300 ppm (Pyricularia oryzae) | inhibition of growth at 300 ppm (Alternaria solani [6])

Cn1ccc2cc(C(=O)NC3(Cc4cccc(Cl)c4)CCCCC3)cnc21 [Compound 12, N-(1-(3-chlorobenzyl)cyclohexyl)-1-methyl-1H-pyrrolo[2,3-b]pyridine-5-carboxamide]
≥ 70%: inhibition of growth at 300 ppm (Colletotrichum capsici) | inhibition of growth at 300 ppm (Pyricularia oryzae) | inhibition of growth at 300 ppm (Alternaria solani [6])

CC(c1ccccc1Cl)C(C)(C)NC(=O)c1cnc2c(ccn2C)c1 (centres unmarked) [Compound 7, N-(3-(2-chlorophenyl)-2-methylbutan-2-yl)-1-methyl-1H-pyrrolo[2,3-b]pyridine-5-carboxamide]
≥ 70%: inhibition of growth at 300 ppm (Parastagonospora nodorum) | inhibition of growth at 300 ppm (Pyricularia oryzae) | inhibition of growth at 300 ppm (Alternaria solani [6])

Cn1cc(C2CC2)c2cc(C(=O)NC(C)(C)Cc3ccccc3Cl)cnc21 [Compound 85, N-(1-(2-chlorophenyl)-2-methylpropan-2-yl)-3-cyclopropyl-1-methyl-1H-pyrrolo[2,3-b]pyridine-5-carboxamide]
≥ 70%: pest or weed control at 500 ppm (Phytophthora infestans [2]) | inhibition of growth at 300 ppm (Parastagonospora nodorum) | inhibition of growth at 300 ppm (Pyricularia oryzae) | inhibition of growth at 300 ppm (Alternaria solani [6]) | pest or weed control at 500 ppm (Phakopsora pachyrhizi)

Cn1ccc2cc(C(=O)NC(C)(C)Cc3cc(F)cc(F)c3)cnc21 [Compound 15, N-(1-(3,5-difluorophenyl)-2-methylpropan-2-yl)-1-methyl-1H-pyrrolo[2,3-b]pyridine-5-carboxamide]
≥ 70%: pest or weed control at 500 ppm (Alternaria solani [7])

Cn1ccc2cc(C(=O)NC(C)(C)Cc3ccccc3Br)cnc21 [Compound 26]
≥ 70%: pest or weed control at 500 ppm (Alternaria solani [7]) | inhibition of growth at 300 ppm (Parastagonospora nodorum) | pest or weed control at 500 ppm (Phakopsora pachyrhizi)

Cn1cc(Cl)c2cc(C(=O)NC(C)(C)Cc3ccccc3F)cnc21 [Compound 59, 3-chloro-N-(1-(2-fluorophenyl)-2-methylpropan-2-yl)-1-methyl-1H-pyrrolo[2,3-b]pyridine-5-carboxamide]
≥ 70%: pest or weed control at 500 ppm (Alternaria solani [7]) | inhibition of growth at 300 ppm (Pyricularia oryzae) | pest or weed control at 500 ppm (Phakopsora pachyrhizi)

CC(C)CC(C)(Cc1ccccc1)NC(=O)c1cnc2c(c1)c(Br)cn2C (centres unmarked) [Compound 51, 3-bromo-N-(2,4-dimethyl-1-phenylpentan-2-yl)-1-methyl-1H-pyrrolo[2,3-b]pyridine-5-carboxamide]
≥ 70%: pest or weed control at 500 ppm (Alternaria solani [7]) | inhibition of growth at 300 ppm (Pyricularia oryzae) | pest or weed control at 500 ppm (Phakopsora pachyrhizi)

Cn1ccc2cc(C(=O)NC(C)(C)Cc3ccccc3F)cnc21 [Compound 13, N-(1-(2-fluorophenyl)-2-methylpropan-2-yl)-1-methyl-1H-pyrrolo[2,3-b]pyridine-5-carboxamide]
≥ 70%: inhibition of growth at 300 ppm (Colletotrichum capsici) | inhibition of growth at 300 ppm (Botrytis cinerea [3]) | inhibition of growth at 300 ppm (Parastagonospora nodorum) | inhibition of growth at 300 ppm (Pyricularia oryzae) | inhibition of growth at 300 ppm (Phytophthora infestans [5]) | inhibition of growth at 300 ppm (Alternaria solani [6])

CCC(O)(CC)C(NC(=O)c1cnc2c(ccn2C)c1)c1ccc(F)cc1 (centres unmarked) [Compound 131, N-(2-ethyl-1-(4-fluorophenyl)-2-hydroxybutyl)-1-methyl-1H-pyrrolo[2,3-b]pyridine-5-carboxamide]
≥ 70%: pest or weed control at 500 ppm (Alternaria solani [7]) | inhibition of growth at 300 ppm (Pyricularia oryzae) | pest or weed control at 500 ppm (Phakopsora pachyrhizi)

Cn1ccc2cc(C(=O)NC(C)(C)Cc3ccc(Cl)cc3F)cnc21 [Compound 47, N-(1-(4-chloro-2-fluorophenyl)-2-methylpropan-2-yl)-1-methyl-1H-pyrrolo[2,3-b]pyridine-5-carboxamide]
≥ 70%: pest or weed control at 500 ppm (Phytophthora infestans [2]) | inhibition of growth at 300 ppm (Venturia Inequalis) | inhibition of growth at 300 ppm (Parastagonospora nodorum) | inhibition of growth at 300 ppm (Pyricularia oryzae) | inhibition of growth at 300 ppm (Alternaria solani [6]) | pest or weed control at 500 ppm (Phakopsora pachyrhizi)

Cn1ccc2cc(C(=O)NC(C)(C)Cc3ccccc3)cnc21 [Compound 1, 1-methyl-N-(2-methyl-1-phenylpropan-2-yl)-1H-pyrrolo[2,3-b]pyridine-5-carboxamide]
≥ 70%: pest or weed control at 500 ppm (Botrytis cinerea [1]) | inhibition of growth at 300 ppm (Colletotrichum capsici) | inhibition of growth at 300 ppm (Pyricularia oryzae) | inhibition of growth at 300 ppm (Alternaria solani [6]) | pest or weed control at 500 ppm (Phakopsora pachyrhizi)

Cn1ccc2cc(C(=O)NC3(Cc4ccccc4)CCCC3)cnc21 [Compound 10, N-(1-benzylcyclopentyl)-1-methyl-1H-pyrrolo[2,3-b]pyridine-5-carboxamide]
≥ 70%: inhibition of growth at 300 ppm (Colletotrichum capsici) | pest or weed control at 500 ppm (Phytophthora infestans [2]) | inhibition of growth at 300 ppm (Parastagonospora nodorum) | inhibition of growth at 300 ppm (Phytophthora infestans [5]) | inhibition of growth at 300 ppm (Alternaria solani [6]) | pest or weed control at 500 ppm (Phakopsora pachyrhizi)
